Results from publication PMC11432405, “Development of Novel Alaninamide Derivatives with Anticonvulsant Activity and Favorable Safety Profiles in Animal Models” (International Journal of Molecular Sciences, 2024).
Read-outs that look alike come from different tables or passages of the source.

Tests used:
[1] = tested on: HepG2 cells; test: hepatocytotoxicity MTT viability assay; type: cell-based, human; conditions: 1–50 µM, 24 h
Protocol: (§1) To evaluate selected compounds’ hepatocytotoxicity and neurocytotoxicity, a human hepatocellular carcinoma cell line, HepG2 (ATCC® HB-8065™), and a human neuroblastoma cell line, SH-SY5Y (ATCC®, CRL-2266™), were used. Both cell lines were cultured in standard culture conditions (5% CO2, 37 °C, 95% humidity) using Dulbecco′s Modified Eagle′s—Medium (DMEM; Gibco, Thermo Scientific, Waltham, MA, USA) supplemented with 10% (vol/vol) fetal bovine serum (FBS; Gibco, Thermo Scientific, Waltham, MA, USA) and an antibiotic mixture (Penicillin, Streptomycin, Amphotericin B; Gibco, Thermo Scientific, Waltham, MA, USA). Cells were cultured with compounds 5, […], or 39 (1–50 µM) for 24 h and then an MTT (3-(4,5-dimethylthiazol-2-yl)-2,5diphenyltetrazolium bromide, Sigma-Aldrich, St. Louis, MO, USA) viability assay was performed. The formazan crystals were dissolved in DMSO (Sigma-Aldrich, St. Louis, MO, USA), and the absorbance at 570 nm was measured using a microplate reader (SpectraMax® iD3, Molecular Devices, San Jose, CA, USA). The experiment was performed three times in duplicate. Each bar represents the mean (±SEM) percentage of viable cells in comparison to the control (defined as 100% and represented by untreated cells).
Figure 2 The viability of HepG2 cells incubated in the presence of 5, 17, and 39. HepG2 cells were exposed to growing concentrations (1–50 µM) of tested compounds for 24 h. Cell viability was measured using an MTT assay. Bars represent mean percent of cell viability normalized to non-treated cells (100%) ± SEM. The doxorubicin was tested as a positive control.

[2] = tested on: 6 Hz (32 mA) seizures; test: 6 Hz (32 mA) psychomotor seizure model;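 further: adult male albino Swiss CD-1 mice, each used once, with compounds suspended in 1% Tween 80 in water as vehicle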
[3] = target: T1, Potassium channel (hERG) (Homo sapiens, UniProt Q12809); test: radioligand binding potassium channel (hERG); conditions: 100 µM, human recombinant HEK-293 cell
T1 construct: Cerep Laboratories / Eurofins (contract assay)
T1 sequence (Q12809 whole entry): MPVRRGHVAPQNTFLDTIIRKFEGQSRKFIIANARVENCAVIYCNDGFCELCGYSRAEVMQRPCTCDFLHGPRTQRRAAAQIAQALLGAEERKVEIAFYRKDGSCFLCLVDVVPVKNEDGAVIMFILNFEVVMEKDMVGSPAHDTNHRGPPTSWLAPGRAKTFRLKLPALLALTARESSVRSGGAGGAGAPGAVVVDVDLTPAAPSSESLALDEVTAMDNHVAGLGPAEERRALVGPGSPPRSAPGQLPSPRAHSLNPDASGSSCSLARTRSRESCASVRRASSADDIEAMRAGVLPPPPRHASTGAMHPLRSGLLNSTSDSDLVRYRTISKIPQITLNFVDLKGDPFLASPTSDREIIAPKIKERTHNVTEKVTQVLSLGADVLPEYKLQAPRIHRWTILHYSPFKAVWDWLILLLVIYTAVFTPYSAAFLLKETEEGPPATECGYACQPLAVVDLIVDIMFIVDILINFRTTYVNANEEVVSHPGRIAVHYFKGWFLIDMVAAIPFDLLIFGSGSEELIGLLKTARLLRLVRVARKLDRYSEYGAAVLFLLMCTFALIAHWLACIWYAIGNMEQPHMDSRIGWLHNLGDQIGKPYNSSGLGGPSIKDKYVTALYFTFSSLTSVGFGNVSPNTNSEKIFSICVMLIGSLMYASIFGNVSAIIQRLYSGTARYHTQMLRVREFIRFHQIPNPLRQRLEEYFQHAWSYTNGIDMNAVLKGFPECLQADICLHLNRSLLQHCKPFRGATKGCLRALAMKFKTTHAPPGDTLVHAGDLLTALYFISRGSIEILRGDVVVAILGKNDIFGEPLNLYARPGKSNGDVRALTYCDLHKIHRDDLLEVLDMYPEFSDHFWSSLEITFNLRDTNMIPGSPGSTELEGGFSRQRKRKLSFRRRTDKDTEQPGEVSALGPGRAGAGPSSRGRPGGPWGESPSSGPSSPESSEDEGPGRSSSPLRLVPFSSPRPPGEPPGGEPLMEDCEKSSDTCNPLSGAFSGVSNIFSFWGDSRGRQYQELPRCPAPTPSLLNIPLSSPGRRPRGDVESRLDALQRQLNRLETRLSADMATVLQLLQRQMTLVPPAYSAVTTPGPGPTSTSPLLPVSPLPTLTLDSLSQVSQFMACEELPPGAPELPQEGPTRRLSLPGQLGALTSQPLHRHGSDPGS
Protocol: (§2) Binding/functional studies were performed commercially in Cerep Laboratories (Poitiers, France) using testing procedures described elsewhere. The general information is listed in Table S3 in the Supporting Information.
(§3) Table S3. The general information of radioligand binding/functional assays. […]
(§4) Potassium channel (hERG) […]
(§5) Assays were performed commercially in Eurofins Cerep SA (Celle l’Evescault, France) and Eurofins
(§6) Panlabs Discovery Services Taiwan, Ltd. (New Taipei City, Taiwan), using procedures describe

[4] = target: T2, hERG potassium channel (Homo sapiens, UniProt Q12809); test: radioligand binding potassium channel (hERG); conditions: HEK-293 cells expressing human recombinant hERG, human recombinant HEK-293 cell, read-out: % Inhibition of Control Specific Binding
T2 construct: Cerep Laboratories / Eurofins (contract assay)
T2 sequence (Q12809 whole entry): as above
Protocol: as §2, §3, §4, §5, §6

[5] = tested on: maximal electroshock (MES) seizures; test: maximal electroshock seizure (MES) test; type: in vivo, mice
Description: Epilepsy is a multifaceted disorder with often unclear etiology, making it challenging to pinpoint a specific receptor or transporter as the definitive target. Consequently, the discovery of ASMs deviates from the traditional drug development pathway, which typically involves designing a new molecule, docking it with a specific biological target, and performing chemical synthesis, followed by in vitro assays. Instead, numerous animal seizure models, which mirror various types of human epileptic seizures, are initially employed in the process of new ASM discovery. This approach has been instrumental in the identification and introduction into clinical practice of all currently used ASMs and continues to be a cornerstone in the preclinical development of new anticonvulsants. The primary justification for prioritizing in vivo screening over in vitro binding and functional studies is the complex and often not fully elucidated mechanisms of action of known ASMs. This approach also facilitates the discovery of compounds with novel, previously undefined pharmacodynamic properties. In light of this, we evaluated all compounds obtained in the current studies using the MES test, which remains one of the most valuable preclinical screening models for tonic-clonic seizures, as well as partial convulsions with or without secondary generalization in humans. This test allows for a comprehensive assessment of the anticonvulsant efficacy of new ASM candidates and is considered highly relevant for predicting their therapeutic efficacy in human epilepsy. The MES test was carried out in mice following the intraperitoneal (i.p.) administration of a screening dose of 100 mg/kg in a group consisting of four animals. The efficacy of the compounds synthesized was evaluated at 0.5 h pretreatment time.
Fresh solutions were prepared daily for each experimentation session.
Each group consisted of six animals.

[6] = tested on: 6 Hz (44 mA) seizures; test: 6 Hz (44 mA) psychomotor seizure model
[7] = tested on: Cav1.2 (L-type) (diltiazem site); test: radioligand binding Cav1.2 (L-type) diltiazem site; conditions: 100 µM, rat cerebral cortex
Protocol: as §2, §3
Ca2+channel (L, diltiazem site) (antagonist radioligand) […]
as §5, §6

[8] = tested on: Cav1.2 (L-type) (verapamil site); test: radioligand binding Cav1.2 (L-type) verapamil site; conditions: 100 µM, rat cerebral cortex
Protocol: as §2, §3
Ca2+channel (L, verapamil site) (antagonist radioligand) […]
as §5, §6

[9] = rotarod test (acute neurological toxicity, motor coordination); type: in vivo; conditions: male, CD-1 (albino Swiss), mouse, in vivo, ip, mice i.p.
Protocol: The protective indexes (PIs) were then calculated as the ratio of TD50 to ED50 (PI = TD50/ED50), providing an assessment of the therapeutic window for each compound.

[10] = tested on: Na+ channel (site 2); test: radioligand binding Na+ channel (site 2); conditions: 100 µM, rat cerebral cortex
Protocol: as §2, §3, §5, §6

[11] = tested on: SH-SY5Y cells; test: neurocytotoxicity MTT viability assay; type: cell-based, human; conditions: 1–50 µM, 24 h
Protocol: as §1
Figure 3 The viability of SH-SY5Y cells incubated in the presence of compounds 5, 17, and 39. […] Cell viability was measured using an MTT assay. […]

CC(C(=O)NCc1ccc(OCc2ccccc2)cc1)N1C(=O)CCC1=O (stereo not shown) [Compound 5, N-(4-(benzyloxy)benzyl)-2-(2,5-dioxopyrrolidin-1-yl)propanamide]
toxic effect on HepG2 cell viability (MTT) [1]: do not exhibit toxic effects | melting point: 102.9 to 103.4 °C | ED50 ([2]; Mus musculus, ip, 0.5 h, read-out: ED50 6 Hz (32 mA), mice i.p., TPE 0.5 h, 95% confidence interval in parentheses): 45.2 mg/kg | responders at 100 mg/kg ([2]; Mus musculus, ip, 0.5 h, read-out: protection (efficacy) in the 6 Hz (32 mA) screening): 50% | PI (TD50/ED50) 6 Hz ([2]; TD50 rotarod / ED50 6 Hz (32 mA)): > 6.6 | ED50 6 Hz (32 mA) ([2]; mice i.p., TPE 0.5 h, 95% confidence interval in parentheses): 45.19 (37.31–54.73) mg/kg | % Inhibition of Control Specific Binding [3]: did not bind | inhibition at 100 µM [4]: 4.5% | responders at 100 mg/kg ([5]; Mus musculus, ip, mice i.p., 100 mg/kg, 0.5 h, four mice, read-out: protection (efficacy) in the MES screening): 100% | ED50 ([5]; Mus musculus, ip, mice i.p., TPE 0.5 h, 95% confidence interval in parentheses): 48 mg/kg | responders at 100 mg/kg ([5]; Mus musculus, ip, mice i.p., dose of 100 mg/kg, pretreatment time 0.5 h, read-out: MES test: number of mice protected / number of mice tested (converted)): 100% | PI (TD50/ED50) MES ([5]; TD50 rotarod / ED50 MES): > 6.3 | ED50 ([6]; Mus musculus, ip, 0.5 h, read-out: ED50 6 Hz (44 mA)): 201 mg/kg | PI (TD50/ED50) 6 Hz (44 mA) ([6]; TD50 rotarod / ED50 6 Hz (44 mA)): >1.5 | % Inhibition of Control Specific Binding [7]: 68.5 (100) % | % Inhibition of Control Specific Binding [8]: 57.1 (100) % | TD50 at 0.5 h [9]: > 300 mg/kg | % Inhibition of Control Specific Binding [10]: 38.2 (100) % | toxic effect on SH-SY5Y cell viability (MTT) [11]: do not exhibit toxic effects
